Experimental data as given in PubChem BioAssay (NCI).
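Compound exposure: 48 hours, 5 concentrations, 96-well plates. GI50 is the concentration that inhibits growth by half. The concentration for full growth arrest is given as TGI.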

Assays:
Experiment in all cases: DTP human tumour cell line panel, 48 h
HOP-92 NSCLC = test system: HOP-92 NSCLC
SR leukemia = test system: SR leukemia
RPMI-8226 leukemia = test system: RPMI-8226 leukemia
SK-MEL-28 melanoma = test system: SK-MEL-28 melanoma
OVCAR-4 ovarian = test system: OVCAR-4 ovarian
SW-620 colon = test system: SW-620 colon
RXF 393 renal = test system: RXF 393 renal
KM12 colon = test system: KM12 colon
ACHN renal = test system: ACHN renal
NCI-H226 lung = test system: NCI-H226 lung
T-47D breast = test system: T-47D breast
MDA-MB-231 breast = test system: MDA-MB-231 breast
HCT-116 colon = test system: HCT-116 colon
OVCAR-5 ovarian = test system: OVCAR-5 ovarian
HCC-2998 colon = test system: HCC-2998 colon
MDA-MB-435 = test system: MDA-MB-435
NCI-H522 lung = test system: NCI-H522 lung
MCF7 breast = test system: MCF7 breast
LOX IMVI melanoma = test system: LOX IMVI melanoma
SK-MEL-2 melanoma = test system: SK-MEL-2 melanoma
UACC-62 melanoma = test system: UACC-62 melanoma
HL-60(TB) leukemia = test system: HL-60(TB) leukemia
HS 578T breast = test system: HS 578T breast
SN12C renal = test system: SN12C renal
NCI-H460 lung = test system: NCI-H460 lung
SF-539 CNS = test system: SF-539 CNS
BT-549 breast = test system: BT-549 breast
HOP-62 NSCLC = test system: HOP-62 NSCLC
PC-3 prostate = test system: PC-3 prostate
786-0 renal = test system: 786-0 renal
OVCAR-8 ovarian = test system: OVCAR-8 ovarian
NCI/ADR-RES ovarian = test system: NCI/ADR-RES ovarian
SK-OV-3 ovarian = test system: SK-OV-3 ovarian
M14 melanoma = test system: M14 melanoma
SNB-75 CNS = test system: SNB-75 CNS
DU-145 prostate = test system: DU-145 prostate
HT29 colon = test system: HT29 colon
HCT-15 colon = test system: HCT-15 colon
COLO 205 colon = test system: COLO 205 colon
K-562 leukemia = test system: K-562 leukemia
TK-10 renal = test system: TK-10 renal
UACC-257 melanoma = test system: UACC-257 melanoma
MALME-3M melanoma = test system: MALME-3M melanoma
OVCAR-3 ovarian = test system: OVCAR-3 ovarian
SNB-19 CNS = test system: SNB-19 CNS
CAKI-1 renal = test system: CAKI-1 renal
EKVX NSCLC = test system: EKVX NSCLC
UO-31 renal = test system: UO-31 renal
A498 renal = test system: A498 renal
U251 CNS = test system: U251 CNS
A549 NSCLC = test system: A549 NSCLC
MOLT-4 leukemia = test system: MOLT-4 leukemia
SF-268 CNS = test system: SF-268 CNS
SK-MEL-5 melanoma = test system: SK-MEL-5 melanoma
SF-295 CNS = test system: SF-295 CNS
IGROV1 ovarian = test system: IGROV1 ovarian
NCI-H23 lung = test system: NCI-H23 lung
CCRF-CEM leukemia = test system: CCRF-CEM leukemia

## N#Cc1nc(-c2ccccc2)oc1S(=O)(=O)N1CCN(CCc2ccccn2)CC1
HOP-92 NSCLC
  GI50: 2.23 µM
  TGI: 6.92 µM
SR leukemia
  GI50: 1.41 µM
  TGI: 5.19 µM
RPMI-8226 leukemia
  GI50: 2.75 µM
SK-MEL-28 melanoma
  GI50: 2.9 µM
  TGI: 9.42 µM
OVCAR-4 ovarian
  GI50: 2.91 µM
  TGI: 9.94 µM
SW-620 colon
  GI50: 0.985 µM
  TGI: 2.7 µM
RXF 393 renal
  GI50: 1.89 µM
  TGI: 3.74 µM
KM12 colon
  GI50: 13.5 µM
  TGI: 36.4 µM
ACHN renal
  GI50: 1.67 µM
  TGI: 3.09 µM
NCI-H226 lung
  GI50: 2.58 µM
  TGI: 7.78 µM
T-47D breast
  GI50: 1.87 µM
  TGI: 4.41 µM
MDA-MB-231 breast
  GI50: 15.5 µM
  TGI: 34.4 µM
HCT-116 colon
  GI50: 1.28 µM
  TGI: 2.61 µM
OVCAR-5 ovarian
  GI50: 12.5 µM
  TGI: 26 µM
HCC-2998 colon
  GI50: 14.2 µM
  TGI: 28.9 µM
MDA-MB-435
  GI50: 4.08 µM
  TGI: 16.7 µM
NCI-H522 lung
  GI50: 1.04 µM
  TGI: 2.36 µM
MCF7 breast
  GI50: 1.83 µM
  TGI: 10.2 µM
LOX IMVI melanoma
  GI50: 1.22 µM
  TGI: 2.69 µM
SK-MEL-2 melanoma
  GI50: 12.4 µM
  TGI: 29.2 µM
UACC-62 melanoma
  GI50: 9.85 µM
  TGI: 23.2 µM
HL-60(TB) leukemia
  GI50: 1.55 µM
  TGI: 4.85 µM
HS 578T breast
  GI50: 17.3 µM
  TGI: 61.9 µM
SN12C renal
  GI50: 10.4 µM
  TGI: 24.2 µM
NCI-H460 lung
  GI50: 12.3 µM
  TGI: 32.7 µM
SF-539 CNS
  GI50: 3.99 µM
  TGI: 13.7 µM
BT-549 breast
  GI50: 3.36 µM
  TGI: 12.7 µM
HOP-62 NSCLC
  GI50: 20.8 µM
  TGI: 58.9 µM
PC-3 prostate
  GI50: 12.3 µM
  TGI: 26.7 µM
786-0 renal
  GI50: 2.21 µM
  TGI: 6.09 µM
OVCAR-8 ovarian
  GI50: 14 µM
  TGI: 49.9 µM
NCI/ADR-RES ovarian
  GI50: 19.3 µM
  TGI: 94.5 µM
SK-OV-3 ovarian
  GI50: 30.4 µM
  TGI: > 100 µM
M14 melanoma
  GI50: 2.29 µM
  TGI: 9.51 µM
SNB-75 CNS
  GI50: 12.3 µM
  TGI: 24.8 µM
DU-145 prostate
  GI50: 4.56 µM
  TGI: 22.3 µM
HT29 colon
  GI50: 1.72 µM
  TGI: 3.44 µM
HCT-15 colon
  GI50: 1.86 µM
  TGI: 5.87 µM
COLO 205 colon
  GI50: 1.54 µM
  TGI: 3.02 µM
K-562 leukemia
  GI50: 0.562 µM
  TGI: 7.78 µM
TK-10 renal
  GI50: 7.32 µM
  TGI: 19.7 µM
UACC-257 melanoma
  GI50: 4.58 µM
  TGI: 17.5 µM
MALME-3M melanoma
  GI50: 1.87 µM
  TGI: 3.69 µM
OVCAR-3 ovarian
  GI50: 1.67 µM
  TGI: 3.22 µM
SNB-19 CNS
  GI50: 20.5 µM
  TGI: 57.9 µM
CAKI-1 renal
  GI50: 1.18 µM
  TGI: 2.41 µM
EKVX NSCLC
  GI50: 23.3 µM
  TGI: 68.2 µM
UO-31 renal
  GI50: 2.64 µM
  TGI: 9.81 µM
A498 renal
  GI50: > 100 µM
  TGI: > 100 µM
U251 CNS
  GI50: 13.5 µM
  TGI: 27 µM
A549 NSCLC
  GI50: 24.6 µM
  TGI: > 100 µM
MOLT-4 leukemia
  GI50: 2.16 µM
  TGI: 8.35 µM
SF-268 CNS
  GI50: 10.5 µM
  TGI: 35.9 µM
SK-MEL-5 melanoma
  GI50: 16.7 µM
  TGI: 32.4 µM
SF-295 CNS
  GI50: 29.2 µM
  TGI: 87.2 µM
IGROV1 ovarian
  GI50: 15.1 µM
  TGI: 47.9 µM

## Nc1ccccc1NC(=O)c1ccc(NC(=O)C/C=C/c2cccnc2)cc1
HOP-92 NSCLC
  GI50: 0.341 µM
  TGI: 8.33 µM
SR leukemia
  GI50: 0.382 µM
  TGI: > 50 µM
RPMI-8226 leukemia
  GI50: 0.605 µM
  TGI: 5.57 µM
SK-MEL-28 melanoma
  GI50: 0.962 µM
  TGI: 2.65 µM
OVCAR-4 ovarian
  GI50: 3.68 µM
  TGI: > 50 µM
NCI-H23 lung
  GI50: 1.55 µM
  TGI: 26.6 µM
SW-620 colon
  GI50: 0.231 µM
  TGI: > 50 µM
RXF 393 renal
  GI50: 0.784 µM
  TGI: 3.86 µM
KM12 colon
  GI50: 8.48 µM
  TGI: > 50 µM
ACHN renal
  GI50: 2.24 µM
  TGI: > 50 µM
CCRF-CEM leukemia
  GI50: 0.225 µM
  TGI: > 50 µM
NCI-H226 lung
  GI50: 1.43 µM
  TGI: > 50 µM
T-47D breast
  GI50: 0.623 µM
  TGI: > 50 µM
MDA-MB-231 breast
  GI50: 6.42 µM
  TGI: > 50 µM
HCT-116 colon
  GI50: 0.176 µM
  TGI: 4.37 µM
OVCAR-5 ovarian
  GI50: 0.803 µM
  TGI: > 50 µM
HCC-2998 colon
  GI50: 0.953 µM
  TGI: 4.54 µM
MDA-MB-435
  GI50: 1.39 µM
  TGI: 8.02 µM
NCI-H522 lung
  GI50: 0.513 µM
  TGI: > 50 µM
MCF7 breast
  GI50: 1.09 µM
  TGI: 8.32 µM
SK-MEL-2 melanoma
  GI50: 2.39 µM
  TGI: > 50 µM
UACC-62 melanoma
  GI50: 1.06 µM
  TGI: 4.98 µM
HL-60(TB) leukemia
  GI50: 0.448 µM
  TGI: > 50 µM
HS 578T breast
  GI50: 1.66 µM
  TGI: > 50 µM
SN12C renal
  GI50: 0.32 µM
  TGI: > 50 µM
NCI-H460 lung
  GI50: 1.45 µM
  TGI: > 50 µM
SF-539 CNS
  GI50: 0.181 µM
  TGI: 26.4 µM
BT-549 breast
  GI50: 1.17 µM
  TGI: 4.72 µM
HOP-62 NSCLC
  GI50: 2 µM
  TGI: > 50 µM
PC-3 prostate
  GI50: 1.26 µM
  TGI: > 50 µM
786-0 renal
  GI50: 2.74 µM
  TGI: > 50 µM
OVCAR-8 ovarian
  GI50: 0.159 µM
  TGI: > 50 µM
NCI/ADR-RES ovarian
  GI50: 3.23 µM
  TGI: > 50 µM
SK-OV-3 ovarian
  GI50: 2.4 µM
  TGI: > 50 µM
M14 melanoma
  GI50: 1.37 µM
  TGI: > 50 µM
SNB-75 CNS
  GI50: 1.26 µM
  TGI: > 50 µM
DU-145 prostate
  GI50: 0.905 µM
  TGI: 2.97 µM
HT29 colon
  GI50: 1.17 µM
  TGI: > 50 µM
HCT-15 colon
  GI50: 1.32 µM
  TGI: > 50 µM
COLO 205 colon
  GI50: 0.813 µM
  TGI: 7.1 µM
K-562 leukemia
  GI50: 0.289 µM
  TGI: > 50 µM
TK-10 renal
  GI50: 0.103 µM
  TGI: > 50 µM
UACC-257 melanoma
  GI50: 1.23 µM
  TGI: > 50 µM
MALME-3M melanoma
  GI50: 0.247 µM
  TGI: 3.56 µM
SNB-19 CNS
  GI50: 2.25 µM
  TGI: > 50 µM
CAKI-1 renal
  GI50: 2.39 µM
  TGI: > 50 µM
EKVX NSCLC
  GI50: 2.25 µM
  TGI: > 50 µM
UO-31 renal
  GI50: 1.54 µM
  TGI: > 50 µM
A498 renal
  GI50: 0.586 µM
  TGI: 2.29 µM
U251 CNS
  GI50: 1.04 µM
  TGI: > 50 µM
A549 NSCLC
  GI50: 2.8 µM
  TGI: > 50 µM
MOLT-4 leukemia
  GI50: 1.05 µM
  TGI: > 50 µM
SF-268 CNS
  GI50: 1.93 µM
  TGI: > 50 µM
SK-MEL-5 melanoma
  GI50: 0.957 µM
  TGI: 1.91 µM
SF-295 CNS
  GI50: 1.67 µM
  TGI: 11.3 µM
IGROV1 ovarian
  GI50: 1.14 µM
  TGI: > 50 µM
